Data as given in ChEMBL document CHEMBL1130155, “Synthesis and structure-activity relationships of potent thrombin inhibitors: piperazides of 3-amidinophenylalanine” (J Med Chem, 1997).

Tests used:
[1] = biological target: T1, Prothrombin (Bos taurus, UniProt P00735); experiment: Inhibitory activity against thrombin.
[2] = biological target: Vitamin K-dependent protein C (Homo sapiens, UniProt P04070); experiment: Inhibitory activity against Activated protein C
[3] = biological target: Coagulation factor X (Bos taurus, UniProt P00743); experiment: Inhibitory activity against coagulation factor X.
Coagulation factor X, sequence (P00743 41-180 limits assumed): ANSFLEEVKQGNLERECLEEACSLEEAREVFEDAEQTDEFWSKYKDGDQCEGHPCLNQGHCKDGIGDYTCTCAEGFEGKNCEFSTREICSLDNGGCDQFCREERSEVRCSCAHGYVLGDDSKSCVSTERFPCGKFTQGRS
Coagulation factor X, sequence (P00743 234-492 limits assumed): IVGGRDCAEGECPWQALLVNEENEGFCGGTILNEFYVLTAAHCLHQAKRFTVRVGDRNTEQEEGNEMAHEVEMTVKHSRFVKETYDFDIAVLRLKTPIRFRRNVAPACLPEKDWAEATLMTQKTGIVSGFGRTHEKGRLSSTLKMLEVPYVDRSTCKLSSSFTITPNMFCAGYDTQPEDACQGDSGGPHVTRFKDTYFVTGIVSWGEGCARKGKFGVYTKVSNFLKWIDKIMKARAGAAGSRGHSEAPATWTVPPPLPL

[4] = biological target: T2, Coagulation factor XII (Homo sapiens, UniProt P00748); experiment: Inhibitory activity against Coagulation factor XII
T2 sequence (P00748 whole entry): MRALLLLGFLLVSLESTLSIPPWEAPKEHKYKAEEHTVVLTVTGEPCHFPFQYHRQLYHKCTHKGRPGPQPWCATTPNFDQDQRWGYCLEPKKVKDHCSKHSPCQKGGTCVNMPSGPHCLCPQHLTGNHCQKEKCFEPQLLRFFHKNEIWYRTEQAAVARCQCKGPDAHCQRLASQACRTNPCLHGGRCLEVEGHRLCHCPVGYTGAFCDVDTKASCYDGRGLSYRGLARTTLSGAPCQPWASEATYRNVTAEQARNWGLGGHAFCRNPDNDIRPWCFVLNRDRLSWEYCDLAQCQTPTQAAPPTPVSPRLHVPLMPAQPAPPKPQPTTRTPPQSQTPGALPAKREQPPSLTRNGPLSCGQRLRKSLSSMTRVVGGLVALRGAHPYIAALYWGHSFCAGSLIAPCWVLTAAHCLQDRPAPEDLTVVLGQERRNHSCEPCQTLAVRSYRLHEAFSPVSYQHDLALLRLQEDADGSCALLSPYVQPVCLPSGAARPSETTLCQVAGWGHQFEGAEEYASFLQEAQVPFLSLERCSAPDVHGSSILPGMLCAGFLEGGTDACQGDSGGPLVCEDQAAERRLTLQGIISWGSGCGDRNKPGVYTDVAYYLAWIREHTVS

[5] = Concentration for doubling of partial thromboplastin time; format: functional, Homo sapiens
[6] = Concentration for doubling of prothrombin time; format: functional, Homo sapiens
[7] = Concentration for doubling of thrombin time; format: functional, Homo sapiens
[8] = biological target: T3, Plasma kallikrein (Homo sapiens, UniProt P03952); experiment: Inhibitory activity against plasma kallikrein (PK.); format: cell-free
T3 sequence (P03952 20-390 limits assumed): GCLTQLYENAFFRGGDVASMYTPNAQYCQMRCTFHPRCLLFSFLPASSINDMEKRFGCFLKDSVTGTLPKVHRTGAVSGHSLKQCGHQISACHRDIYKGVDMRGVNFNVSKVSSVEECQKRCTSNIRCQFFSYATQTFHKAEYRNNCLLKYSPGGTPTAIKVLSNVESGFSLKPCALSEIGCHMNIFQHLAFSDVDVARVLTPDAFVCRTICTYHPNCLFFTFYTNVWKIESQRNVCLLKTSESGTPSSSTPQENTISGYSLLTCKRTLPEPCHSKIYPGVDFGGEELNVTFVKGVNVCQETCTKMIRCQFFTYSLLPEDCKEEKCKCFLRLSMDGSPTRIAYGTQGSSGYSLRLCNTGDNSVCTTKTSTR
T3 sequence (P03952 391-638 limits assumed): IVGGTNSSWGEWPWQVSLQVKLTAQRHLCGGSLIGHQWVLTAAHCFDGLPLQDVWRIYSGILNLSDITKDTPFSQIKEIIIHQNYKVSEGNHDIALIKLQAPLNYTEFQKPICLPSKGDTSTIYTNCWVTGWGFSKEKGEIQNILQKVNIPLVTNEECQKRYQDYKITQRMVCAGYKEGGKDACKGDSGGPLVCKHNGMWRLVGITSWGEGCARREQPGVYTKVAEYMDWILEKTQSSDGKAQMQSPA

[9] = biological target: Plasminogen (Homo sapiens, UniProt P00747); experiment: Inhibitory activity against Plasmin.
Plasminogen, sequence (P00747 97-580 limits assumed): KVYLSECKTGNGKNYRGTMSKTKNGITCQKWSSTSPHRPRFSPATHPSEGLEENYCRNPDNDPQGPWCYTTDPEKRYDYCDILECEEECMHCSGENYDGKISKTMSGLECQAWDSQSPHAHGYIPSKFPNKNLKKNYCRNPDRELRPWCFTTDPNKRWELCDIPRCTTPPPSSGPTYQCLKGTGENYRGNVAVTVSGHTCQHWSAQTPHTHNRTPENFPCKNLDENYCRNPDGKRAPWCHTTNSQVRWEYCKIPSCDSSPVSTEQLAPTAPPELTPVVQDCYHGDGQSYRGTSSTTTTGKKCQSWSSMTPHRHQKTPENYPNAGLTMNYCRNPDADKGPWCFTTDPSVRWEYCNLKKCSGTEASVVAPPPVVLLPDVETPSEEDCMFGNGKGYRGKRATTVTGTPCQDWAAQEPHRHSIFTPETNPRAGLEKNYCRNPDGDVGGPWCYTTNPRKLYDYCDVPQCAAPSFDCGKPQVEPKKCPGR
Plasminogen, sequence (P00747 581-810 limits assumed): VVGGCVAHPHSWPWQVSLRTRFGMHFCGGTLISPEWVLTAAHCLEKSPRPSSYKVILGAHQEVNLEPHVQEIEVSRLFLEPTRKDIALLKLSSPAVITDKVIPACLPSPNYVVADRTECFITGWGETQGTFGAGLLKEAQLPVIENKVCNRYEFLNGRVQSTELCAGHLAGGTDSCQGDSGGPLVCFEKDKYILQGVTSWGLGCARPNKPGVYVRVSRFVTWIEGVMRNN

[10] = biological target: Tissue-type plasminogen activator (Homo sapiens, UniProt P00750); experiment: Inhibitory activity against single-chain tissue-type plasminogen activator (sc-tissue plasminogen activator)
Tissue-type plasminogen activator, sequence (P00750 whole entry): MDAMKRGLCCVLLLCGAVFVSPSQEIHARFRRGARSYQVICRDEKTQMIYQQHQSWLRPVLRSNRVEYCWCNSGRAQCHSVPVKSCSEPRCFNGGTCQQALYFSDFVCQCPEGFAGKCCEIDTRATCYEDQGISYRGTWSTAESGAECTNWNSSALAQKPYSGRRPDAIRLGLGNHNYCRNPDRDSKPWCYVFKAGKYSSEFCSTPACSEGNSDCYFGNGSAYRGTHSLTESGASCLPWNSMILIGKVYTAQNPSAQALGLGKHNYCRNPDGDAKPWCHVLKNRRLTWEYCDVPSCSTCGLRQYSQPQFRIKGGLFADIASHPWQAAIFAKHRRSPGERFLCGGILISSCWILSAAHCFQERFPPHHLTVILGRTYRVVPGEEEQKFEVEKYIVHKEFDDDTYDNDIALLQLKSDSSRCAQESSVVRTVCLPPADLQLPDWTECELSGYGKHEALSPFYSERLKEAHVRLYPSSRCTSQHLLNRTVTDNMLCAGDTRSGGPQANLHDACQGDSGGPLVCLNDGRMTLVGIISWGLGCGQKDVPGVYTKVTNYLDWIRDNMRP

[11] = biological target: T4, Urokinase-type plasminogen activator (Homo sapiens, UniProt P00749); experiment: Inhibitory activity against urokinase (UK )
[12] = biological target: T5, Serine protease 1 (Bos taurus, UniProt P00760); experiment: Inhibitory activity against trypsin
T5 sequence (P00760 whole entry): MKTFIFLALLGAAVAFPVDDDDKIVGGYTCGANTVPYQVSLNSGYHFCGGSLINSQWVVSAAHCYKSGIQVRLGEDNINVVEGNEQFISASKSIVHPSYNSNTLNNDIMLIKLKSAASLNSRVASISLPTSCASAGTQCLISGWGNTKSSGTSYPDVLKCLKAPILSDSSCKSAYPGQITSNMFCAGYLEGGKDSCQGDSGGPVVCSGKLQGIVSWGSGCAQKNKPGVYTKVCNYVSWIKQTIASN

[13] = biological target: T1, Prothrombin
[14] = biological target: T3, Plasma kallikrein; experiment: Inhibitory activity against Kallikrein (PK)
[15] = biological target: T4, Urokinase-type plasminogen activator; experiment: Inhibitory activity against UK.
[16] = 1 mg/kg was administered intravenously in anesthetized rats and the concentration in plasma was determined after 240 minutes.; details: rat, iv
[17] = 1 mg/kg was administered intravenously in anesthetized rats and the concentration in plasma was determined after 30 minutes.; details: rat, iv
[18] = 1 mg/kg was administered intravenously in anesthetized rats and the concentration in plasma was determined after 45 minutes.; details: rat, iv
[19] = 1 mg/kg was administered intravenously in anesthetized rats and the concentration in plasma was determined after 5 minutes.; details: rat, iv
[20] = 1 mg/kg was administered intravenously in anesthetized rats and the concentration in plasma was determined after 60 minutes.; details: rat, iv
[21] = 1 mg/kg was administered intravenously in anesthetized rats and the concentration in plasma was determined after 90 minutes.; details: rat, iv
[22] = 50 mg/kg was administered orally in anesthetized rats and the concentration in plasma was determined after 120 minutes.; details: rat, po
[23] = 50 mg/kg was administered orally in anesthetized rats and the concentration in plasma was determined after 15 minutes.; format: ADME, organism-based; details: rat, po, read-out: Activity
[24] = 50 mg/kg was administered orally in anesthetized rats and the concentration in plasma was determined after 180 minutes.; details: rat, po
[25] = 50 mg/kg was administered orally in anesthetized rats and the concentration in plasma was determined after 30 minutes.; details: rat, po
[26] = 50 mg/kg was administered orally in anesthetized rats and the concentration in plasma was determined after 45 minutes.; format: ADME, organism-based; details: rat, po, read-out: Activity
[27] = 50 mg/kg was administered orally in anesthetized rats and the concentration in plasma was determined after 5 minutes.; format: ADME, organism-based; details: rat, po, read-out: Activity
[28] = 50 mg/kg was administered orally in anesthetized rats and the concentration in plasma was determined after 60 minutes.; details: rat, po
[29] = 1 mg/kg was administered intravenously in anesthetized rats and the concentration in plasma was determined after 120 minutes.; details: rat, iv
[30] = 1 mg/kg was administered intravenously in anesthetized rats and the concentration in plasma was determined after 15 minutes.; details: rat, iv
[31] = 1 mg/kg was administered intravenously in anesthetized rats and the concentration in plasma was determined after 180 minutes.; details: rat, iv
[32] = 50 mg/kg was administered orally in anesthetized rats and the concentration in plasma was determined after 90 minutes.; format: ADME, organism-based; details: rat, po, read-out: Activity
[33] = 1 mg/kg was administered intravenously in anesthetized rats and the concentration in plasma was determined after 2 minutes.; details: rat, iv

Vitamin K-dependent protein C, sequence (P04070 43-197 limits assumed): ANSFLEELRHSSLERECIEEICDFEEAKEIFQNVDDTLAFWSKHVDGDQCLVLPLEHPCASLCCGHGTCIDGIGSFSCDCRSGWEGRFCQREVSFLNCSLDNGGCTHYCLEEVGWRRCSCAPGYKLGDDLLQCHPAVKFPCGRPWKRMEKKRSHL
Vitamin K-dependent protein C, sequence (P04070 212-461 limits assumed): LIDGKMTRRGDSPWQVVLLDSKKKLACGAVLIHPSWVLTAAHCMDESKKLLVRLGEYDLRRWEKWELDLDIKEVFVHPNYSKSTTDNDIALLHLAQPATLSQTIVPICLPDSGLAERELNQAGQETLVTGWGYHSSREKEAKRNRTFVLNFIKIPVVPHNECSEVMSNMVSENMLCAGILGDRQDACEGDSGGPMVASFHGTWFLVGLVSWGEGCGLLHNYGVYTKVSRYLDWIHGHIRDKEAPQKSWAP

| SMILES | Ki [2] | Ki [3] | Ki [4] | IC50 [5] | IC50 [6] | IC50 [7] | Ki [9] | Ki [10] | Ki [12] | Ki [13] | Ki [14] | Ki [15] | further results |
| --- | --- | --- | --- | --- | --- | --- | --- | --- | --- | --- | --- | --- | --- |
| CC1CCN(C(=O)[C@@H](Cc2cccc(C(=N)N)c2)NS(=O)(=O)c2ccc3ccccc3c2)CC1 |  |  |  |  |  |  |  |  |  |  |  |  | Ki [1]: 0.0025 µM |
| CN1CCN(C(=O)[C@@H](Cc2cccc(C(=N)N)c2)NS(=O)(=O)c2ccc3ccccc3c2)CC1 | 94 µM | 19 µM | 280 µM | 1.2 µM | 1.8 µM | 0.22 µM | 30 µM | > 1000 µM | 0.47 µM | 0.016 µM |  |  | Ki [8]: 35 µM; Ki [11]: 110 µM |
| N=C(N)c1cccc(C[C@@H](NS(=O)(=O)c2ccc3ccccc3c2)C(=O)N2CCN(C=O)CC2)c1 | 10.3 µM | 9.7 µM | 53 µM | 0.35 µM | 0.7 µM | 0.063 µM | 3.3 µM | 110 µM | 0.073 µM | 0.023 µM | 3.3 µM | 34 µM |  |
| CC(=O)N1CCN(C(=O)[C@@H](Cc2cccc(C(=N)N)c2)NS(=O)(=O)c2ccc3ccccc3c2)CC1 | 12 µM | 34 µM | 200 µM | 0.28 µM | 0.76 µM | 0.062 µM | 5.2 µM | 410 µM | 0.044 µM |  | 15 µM | 32 µM | concentration at 4 h [16]: < 40 ng/mL; concentration at 0.5 h [17]: 270 ng/mL; concentration at 0.75 h [18]: 170 ng/mL; concentration at 5 min [19]: 2080 ng/mL; concentration at 1 h [20]: 130 ng/mL; concentration at 1.5 h [21]: 100 ng/mL; concentration at 2 h [22]: 260 ng/mL; concentration at 0.25 h [23]: 410 ng/mL; concentration at 3 h [24]: 300 ng/mL; concentration at 0.5 h [25]: 450 ng/mL; concentration at 0.75 h [26]: 410 ng/mL; concentration at 5 min [27]: 230 ng/mL; concentration at 1 h [28]: 380 ng/mL; concentration at 2 h [29]: 90 ng/mL; concentration at 0.25 h [30]: 610 ng/mL; concentration at 3 h [31]: < 40 ng/mL; concentration at 1.5 h [32]: 270 ng/mL; concentration at 2 min [33]: 3550 ng/mL |
